The record followed here is paper PMC6757289, “Design and Characterization of SGK3-PROTAC1, an Isoform Specific SGK3 Kinase PROTAC Degrader” (ACS Chemical Biology, 2019).

What all share (format): cell-based
Experiment [1] addresses S6K1 (Homo sapiens, UniProt P23443). Briefly: S6K1 protein level in HEK293 cells, immunoblot. On the set-up: reduced endogenous SGK isoform or S6K1 expression when administered to HEK293 cells for 48 h; endogenous in cells; host or cells: HEK293. As for the experimental part: (§1) A medium length linker composed of three PEG units was used in the first instance (Figure 1B and C). […] After 48 h of PROTAC treatment, cell lysates were analyzed by immunoblot analysis, and protein expression under each condition was quantified relative to the DMSO-only control. […] DAT1 reduced SGK3 expression by 60% at 1 μM and 75% at 10 μM after 48 h (Figure 1D). […] As expected, inhibition of CUL2 neddylation by means of the inhibitor MLN4924 (3 μM) or proteasome inhibition (MG132, 50 μM) blocked DAT1-induced degradation of SGK3 (Figure S1C).
(§2) All cell treatments were carried out as described in figure legends, to a final DMSO concentration of 0.1% (v/v). Lysates were quantified. Immunoblotting was performed using standard procedures, described in brief below. Lysate concentration was quantified by Bradford Assay, and 10 μg of lysate was loaded in the LDS sample buffer for SDS-PAGE electrophoresis on Novex 4–12% Bis–Tris gels. Proteins were electrophoretically transferred onto nitrocellulose membranes (Amersham Protran 0.45 μm NC; GE Healthcare) at 80 V for 80 min on ice in transfer buffer. Transferred membranes were blocked with 5% (w/v) nonfat dry milk dissolved in TBS-T [20 mM Tris/HCl, pH 7.5, 150 mM NaCl, and 0.1% (v/v) Tween 20] at RT for 30 min, before incubation with the primary antibody overnight at 4 °C. The signal was produced with near-infrared secondary antibodies and detected using a Licor Biosciences Odyssey System, and the signal was quantified in Image Studio Lite.
In general terms: In western blotting, separated proteins are transferred to a membrane and probed.

For experiment [2], the target named is T1, SGK1 (Homo sapiens, UniProt O00141).
T1 sequence (O00141 1-431): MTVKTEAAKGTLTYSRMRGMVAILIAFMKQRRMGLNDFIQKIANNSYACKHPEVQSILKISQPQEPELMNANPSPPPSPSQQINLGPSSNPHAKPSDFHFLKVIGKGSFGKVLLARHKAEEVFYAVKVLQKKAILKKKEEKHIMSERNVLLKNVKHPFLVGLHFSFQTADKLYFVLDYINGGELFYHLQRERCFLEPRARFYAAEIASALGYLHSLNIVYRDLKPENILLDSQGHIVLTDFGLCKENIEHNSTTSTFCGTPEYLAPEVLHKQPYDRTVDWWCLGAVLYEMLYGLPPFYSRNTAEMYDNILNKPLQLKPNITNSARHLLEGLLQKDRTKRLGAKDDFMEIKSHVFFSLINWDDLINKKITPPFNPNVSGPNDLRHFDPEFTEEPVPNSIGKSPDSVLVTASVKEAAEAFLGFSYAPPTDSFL
The experiment can be described thus: SGK1 protein level in HEK293 cells, immunoblot. Conditions: HEK293, 48 h. On the procedure: as §1
as §2, with “Transferred membranes were blocked with 5% (w/v) nonfat dry milk dissolved in TBS-T [20 mM Tris/HCl, pH 7.5, 150 mM NaCl, and 0.1% (v/v) Tween 20] at RT for 30 min, before incubation with the primary antibody overnight at 4 °C.” left out

Experiment [3] relates to mTORC1-mediated phosphorylation of S6K1 at Thr389. Briefly: mTORC1 signaling in ZR-75-1 cells treated with PI3K or Akt inhibitor, immunoblot. Conditions: ZR-75-1, 5 days 1 μM GDC0941 or AZD5363; 0.3 μM. On the procedure: We therefore aimed to investigate the effect that degradation of SGK3 would have on this resistance pathway and whether SGK3-PROTAC1 treatment could reverse inhibitor resistance. To investigate the effect of SGK3-PROTAC1 under these conditions, we treated CAMA-1 (Figure 5A,C) or ZR-75-1 (Figure 5B,D) for 5 days with either a class 1A PI3K inhibitor (GDC0941 1 μM;[38]Figure 5A,B) or an Akt inhibitor (AZD5363, 1 μM;[39]Figure 5C,D). These cells were treated with SGK3-PROTAC1 or cisSGK3-PROTAC1 (0.3 μM) for either 5 days in combination with the inhibitors or 8 h before lysis.
Figure 5 SGK3-PROTAC1-mediated degradation of SGK3 inhibits Akt-independent activation of mTORC1 in cancer cell lines treated with Akt or PI3K inhibitors. CAMA-1 (A, C) or ZR-75-1 (B, D) were treated for 5 days with 1 μM GDC0941 (A, B) or 1 μM AZD5363 (C, D). […]
All cell treatments were carried out as described in figure legends, to a final DMSO concentration of 0.1% (v/v). Lysates were quantified. […] Lysate concentration was quantified by Bradford Assay, and 10 μg of lysate was loaded in the LDS sample buffer for SDS-PAGE electrophoresis on Novex 4–12% Bis–Tris gels. […] The signal was produced with near-infrared secondary antibodies and detected using a Licor Biosciences Odyssey System, and the signal was quantified in Image Studio Lite.

Experiment [4] concerns the target T2, SGK3 (Homo sapiens, UniProt Q96BR1).
T2 sequence (Q96BR1 1-496): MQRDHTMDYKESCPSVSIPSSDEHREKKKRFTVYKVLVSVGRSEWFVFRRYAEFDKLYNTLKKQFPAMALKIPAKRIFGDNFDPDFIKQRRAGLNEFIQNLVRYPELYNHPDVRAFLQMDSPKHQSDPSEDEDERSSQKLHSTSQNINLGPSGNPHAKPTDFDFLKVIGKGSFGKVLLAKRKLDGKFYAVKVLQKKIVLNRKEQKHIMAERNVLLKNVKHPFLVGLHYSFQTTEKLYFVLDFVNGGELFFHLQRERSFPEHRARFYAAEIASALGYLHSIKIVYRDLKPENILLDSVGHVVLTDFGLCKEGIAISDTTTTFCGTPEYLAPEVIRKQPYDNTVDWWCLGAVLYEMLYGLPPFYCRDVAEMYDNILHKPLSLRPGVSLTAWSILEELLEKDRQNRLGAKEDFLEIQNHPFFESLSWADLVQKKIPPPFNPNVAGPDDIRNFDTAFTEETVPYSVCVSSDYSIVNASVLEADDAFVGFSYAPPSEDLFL
The experiment can be described thus: SGK3 degradation in CAMA-1 cells, immunoblot. The settings on record: for SGK3 expression: CAMA-1, 5 days 1 μM GDC0941 or AZD5363, 0.3 μM for 5 days or 8 h. On the procedure: Figure 3 Characterization of cellular activities of SGK3-PROTAC1 and cisSGK3-PROTAC1. (A) HEK293 cells were first treated for 8 h with 0.03–3 μM SGK3-PROTAC1 and cisSGK3-PROTAC1. One hour before lysis, cells were treated with 3 μM AZD5363. Lysates were subjected to immunoblot analysis with the indicated antibodies. […] Lysates were subjected to immunoblot analysis with the indicated antibodies. (C) HEK293 cells were treated for up to 48 h with SGK3-PROTAC1 (0.3 μM), and lysates were analyzed by immunoblot analysis using the indicated antibodies. (D) HEK293 cells were treated for 24 h with SGK3-PROTAC1. Cells were washed three times with DMEM to wash out the compound, and recovery of SGK3 expression protein was analyzed by immunoblot analysis. (E–G) As in A except that CAMA-1 (E), ZR-75-1 (F), and JIMT-1 (G) cells were employed rather than HEK293 cells.
Figure 5 SGK3-PROTAC1-mediated degradation of SGK3 inhibits Akt-independent activation of mTORC1 in cancer cell lines treated with Akt or PI3K inhibitors. CAMA-1 (A, C) or ZR-75-1 (B, D) were treated for 5 days with 1 μM GDC0941 (A, B) or 1 μM AZD5363 (C, D). Cells were treated with the compounds indicated for either 5 days or 8 h before lysis; cells were treated with the compounds indicated. Cell lysates were subject to immunoblot analysis with the indicated antibodies.
as §2

A value given as a limit tells only on which side of the number the result lay.

Chain of S6K1 (P23443 whole entry, canonical isoform): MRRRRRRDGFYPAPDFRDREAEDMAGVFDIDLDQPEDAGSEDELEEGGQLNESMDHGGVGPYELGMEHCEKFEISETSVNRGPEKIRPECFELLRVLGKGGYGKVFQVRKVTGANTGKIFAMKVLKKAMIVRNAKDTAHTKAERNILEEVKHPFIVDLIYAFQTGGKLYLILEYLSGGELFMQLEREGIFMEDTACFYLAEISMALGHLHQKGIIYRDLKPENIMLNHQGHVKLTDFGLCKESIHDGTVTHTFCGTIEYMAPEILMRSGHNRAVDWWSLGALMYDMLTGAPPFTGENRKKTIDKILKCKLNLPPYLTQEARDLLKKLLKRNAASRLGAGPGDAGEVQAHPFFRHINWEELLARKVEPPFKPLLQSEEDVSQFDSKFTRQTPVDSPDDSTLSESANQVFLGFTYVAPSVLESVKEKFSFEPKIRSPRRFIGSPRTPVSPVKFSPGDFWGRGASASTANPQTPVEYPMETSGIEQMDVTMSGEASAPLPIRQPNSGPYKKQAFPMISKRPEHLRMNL

As for `Cc1ccc(F)c(S(=O)(=O)Nc2ccc(-c3nc(OC[C@H]4CN(CCOCCOCCOCC(=O)N[C@H](C(=O)N5C[C@H](O)C[C@H]5C(=O)NCc5ccc(-c6scnc6C)cc5)C(C)(C)C)CCO4)c4cn[nH]c4n3)cc2)c1` [DAT1], in experiment [1] (HEK293, 48 h, up to 10 μM), the S6K1 level result is listed as “not significantly impacted”. Besides, the SGK1 level result in experiment [2] (up to 10 μM) is listed as “not significantly impacted”.
Consider `Cc1ccc(F)c(S(=O)(=O)Nc2ccc(-c3nc(OC[C@H]4CN(CCCCCCOCCOCCOCC(=O)N[C@H](C(=O)N5C[C@H](O)C[C@H]5C(=O)NCc5ccc(-c6scnc6C)cc5)C(C)(C)C)CCO4)c4cn[nH]c4n3)cc2)c1` [SGK3-PROTAC1], for which the S6K1 degradation result in experiment [1] (HEK293, 8 h, doses of up to 1 μM) is “no degradation”; in experiment [1] (HEK293, 48 h, 1–10 μM), “moderate degradation”. The S6K1 level result in experiment [1] (HEK293, 48 h, 0.1 μM) is “without effecting”. Besides, in experiment [2] (0.1 μM), the SGK1 level result was “without effecting”. In experiment [3], the “phosphorylation of S6K1 at Thr389” value is recorded as “suppressed”. For the same molecule, the “concentration inducing degradation of SGK3” value in experiment [4] (CAMA-1, 8 h) is > 0.1 µM. The SGK3 expression result in experiment [4] is given as “substantially reduced”.
In the case of `Cc1ccc(F)c(S(=O)(=O)Nc2ccc(-c3nc(OC[C@H]4CN(CCCCCCOCCOCCOCC(=O)N[C@H](C(=O)N5C[C@@H](O)C[C@H]5C(=O)NCc5ccc(-c6scnc6C)cc5)C(C)(C)C)CCO4)c4cn[nH]c4n3)cc2)c1` [cisSGK3-PROTAC1], the “phosphorylation of S6K1 at Thr389” value in experiment [3] is recorded as “no significant effect”. In addition, the “degradation of SGK3” value in experiment [4] (CAMA-1, 8 h, 0.03–3 μM) was “no impact”. In experiment [4], the SGK3 expression entry was “no significant effect”.
